Assay results reported in ChEMBL document CHEMBL1201862, “PubChem BioAssay data set” (2004).
Calls of active or inactive are those of the source.

What was measured:
[1] = target: Potassium voltage-gated channel subfamily KQT member 2 (Rattus norvegicus, UniProt O88943); assay: blockers of KCNQ2 channel current – cell-based, automated electrophysiology, set II, rat KCNQ2, dose response (AID 588637); format: functional
[2] = target: T1, Ubiquitin-conjugating enzyme E2 N (Homo sapiens, UniProt P61088); format: functional
T1 sequence (P61088 whole entry): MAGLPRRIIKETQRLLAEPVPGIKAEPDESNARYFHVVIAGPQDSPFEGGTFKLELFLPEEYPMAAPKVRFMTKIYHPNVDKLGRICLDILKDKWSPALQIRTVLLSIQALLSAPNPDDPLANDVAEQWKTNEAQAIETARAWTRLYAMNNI

[3] = target: T2, Short transient receptor potential channel 4 (Mus musculus, UniProt Q9QUQ5); assay: block of DAMGO-driven TRPC4 calcium entry – cell-based, HEK293 TRPC4/mu-opioid, Fluo-4 calcium, dose response (AID 434942); format: functional;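 also: potency of inhibitors blocking the TRPC4 calcium response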
T2 sequence (Q9QUQ5 whole entry): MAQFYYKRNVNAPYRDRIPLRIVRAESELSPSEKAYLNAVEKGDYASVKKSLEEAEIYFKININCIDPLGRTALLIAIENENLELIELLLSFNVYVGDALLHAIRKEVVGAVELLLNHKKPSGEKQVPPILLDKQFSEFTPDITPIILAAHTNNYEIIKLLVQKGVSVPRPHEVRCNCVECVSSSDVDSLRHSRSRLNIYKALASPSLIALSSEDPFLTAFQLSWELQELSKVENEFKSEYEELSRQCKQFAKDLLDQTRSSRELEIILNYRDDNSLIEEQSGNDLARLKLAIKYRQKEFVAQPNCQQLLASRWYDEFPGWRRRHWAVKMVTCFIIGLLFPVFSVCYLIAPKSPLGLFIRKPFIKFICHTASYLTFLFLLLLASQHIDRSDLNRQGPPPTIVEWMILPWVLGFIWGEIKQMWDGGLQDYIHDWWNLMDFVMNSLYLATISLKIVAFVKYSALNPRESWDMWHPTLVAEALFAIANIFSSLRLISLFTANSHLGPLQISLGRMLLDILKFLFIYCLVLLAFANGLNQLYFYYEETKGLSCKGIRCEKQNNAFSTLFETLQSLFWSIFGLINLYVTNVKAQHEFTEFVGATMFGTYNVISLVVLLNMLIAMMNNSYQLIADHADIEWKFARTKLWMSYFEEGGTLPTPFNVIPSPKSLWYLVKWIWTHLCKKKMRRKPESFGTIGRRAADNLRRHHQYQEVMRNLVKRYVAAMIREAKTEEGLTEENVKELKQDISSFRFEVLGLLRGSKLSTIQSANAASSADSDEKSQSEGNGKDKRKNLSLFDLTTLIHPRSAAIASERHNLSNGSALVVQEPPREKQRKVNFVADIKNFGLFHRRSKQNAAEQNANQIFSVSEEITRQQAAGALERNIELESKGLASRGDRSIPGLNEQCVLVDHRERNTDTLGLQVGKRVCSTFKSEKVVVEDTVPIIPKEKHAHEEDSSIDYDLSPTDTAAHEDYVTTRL

[4] = fluconazole-exposed Candida albicans growth modulators – fluorescence, retest, confirmation (AID 2467); format: functional, cell-based
[5] = NIH-3T3 fibroblast cytotoxicity, dose response, cytotoxicity control, cell-based, fluorescence, Alamar Blue, secondary assay (AID 2327); format: functional;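 also: NIH-3T3 mouse fibroblasts cultured with fluconazole at 8 µg/mL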
[6] = NIH3T3 cell viability loss – ATP luminescence, mouse fibroblasts, counter-screen, dose response (AID 2010); format: functional, cell-based;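 also: cells exposed to compound for about 90 hours before reading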
[7] = target: Benomyl/methotrexate resistance protein (Candida albicans, UniProt P28873); assay: Candida albicans Mdr1 pump inhibition curves – singleplex, Cherry Pick1 hits, dose response (AID 588608); format: functional
Sequence of Benomyl/methotrexate resistance protein (P28873 whole entry): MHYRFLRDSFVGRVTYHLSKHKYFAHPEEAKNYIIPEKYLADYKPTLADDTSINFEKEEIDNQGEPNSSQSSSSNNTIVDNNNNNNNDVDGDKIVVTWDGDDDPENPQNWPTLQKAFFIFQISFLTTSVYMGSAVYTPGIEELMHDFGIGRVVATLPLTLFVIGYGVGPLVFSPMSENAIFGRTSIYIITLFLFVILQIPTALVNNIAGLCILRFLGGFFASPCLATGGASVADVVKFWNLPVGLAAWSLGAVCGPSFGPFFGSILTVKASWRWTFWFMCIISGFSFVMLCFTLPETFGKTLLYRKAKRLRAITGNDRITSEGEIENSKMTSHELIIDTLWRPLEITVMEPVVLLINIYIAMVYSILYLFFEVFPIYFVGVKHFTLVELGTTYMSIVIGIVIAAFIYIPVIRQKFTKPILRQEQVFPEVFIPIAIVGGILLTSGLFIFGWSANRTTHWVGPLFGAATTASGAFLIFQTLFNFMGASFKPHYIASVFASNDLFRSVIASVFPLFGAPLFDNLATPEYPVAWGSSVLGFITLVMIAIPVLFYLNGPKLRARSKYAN

[8] = Trypanosoma cruzi growth suppression in host cells – NIH3T3 host cells, beta-gal luminescence, confirmation (AID 2044); format: functional, cell-based;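 also: intracellular parasites grown in NIH/3T3 mouse fibroblasts as host cells; luminescent beta-galactosidase reporter signal from transgenic T. cruzi replicating inside host cells; inhibitors lower the luminescence signal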
[9] = target: T3, Low molecular weight phosphotyrosine protein phosphatase (Homo sapiens, UniProt P24666); format: functional; conditions: read-out: IC50_Mean
T3 sequence (P24666 whole entry): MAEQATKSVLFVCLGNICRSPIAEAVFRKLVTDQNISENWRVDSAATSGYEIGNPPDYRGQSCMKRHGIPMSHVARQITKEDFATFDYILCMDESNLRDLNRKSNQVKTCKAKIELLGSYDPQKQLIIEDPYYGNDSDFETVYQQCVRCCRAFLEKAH

[10] = target: T3, Low molecular weight phosphotyrosine protein phosphatase; format: functional; conditions: read-out: IC50_Mean; remark: listed apart in the source
[11] = target: T4, Carboxy-terminal domain RNA polymerase II polypeptide A small phosphatase 1 (Homo sapiens, UniProt Q9GZU7); assay: CTDSP1 inhibitors, concentration-response, biochemical, absorbance readout, ultra-high-throughput screen actives (AID 540297); format: functional
T4 sequence (Q9GZU7 whole entry): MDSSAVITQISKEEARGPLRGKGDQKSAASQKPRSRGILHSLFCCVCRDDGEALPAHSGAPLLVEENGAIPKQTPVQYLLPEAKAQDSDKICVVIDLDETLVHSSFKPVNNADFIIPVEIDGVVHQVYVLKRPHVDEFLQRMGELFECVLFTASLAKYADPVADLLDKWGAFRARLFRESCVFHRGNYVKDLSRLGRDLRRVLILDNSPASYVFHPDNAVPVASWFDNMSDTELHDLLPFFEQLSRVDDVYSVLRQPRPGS

[12] = target: T5, Tyrosine-protein phosphatase non-receptor type 22 (Homo sapiens, UniProt Q9Y2R2); assay: PTPN22 enzyme inhibitors – biochemical, fluorescence, LYP catalytic domain, selectivity assay for LMPTP inhibitor project, dose response (AID 652006); format: functional; conditions: read-out: IC50_Mean
T5 sequence (Q9Y2R2 whole entry): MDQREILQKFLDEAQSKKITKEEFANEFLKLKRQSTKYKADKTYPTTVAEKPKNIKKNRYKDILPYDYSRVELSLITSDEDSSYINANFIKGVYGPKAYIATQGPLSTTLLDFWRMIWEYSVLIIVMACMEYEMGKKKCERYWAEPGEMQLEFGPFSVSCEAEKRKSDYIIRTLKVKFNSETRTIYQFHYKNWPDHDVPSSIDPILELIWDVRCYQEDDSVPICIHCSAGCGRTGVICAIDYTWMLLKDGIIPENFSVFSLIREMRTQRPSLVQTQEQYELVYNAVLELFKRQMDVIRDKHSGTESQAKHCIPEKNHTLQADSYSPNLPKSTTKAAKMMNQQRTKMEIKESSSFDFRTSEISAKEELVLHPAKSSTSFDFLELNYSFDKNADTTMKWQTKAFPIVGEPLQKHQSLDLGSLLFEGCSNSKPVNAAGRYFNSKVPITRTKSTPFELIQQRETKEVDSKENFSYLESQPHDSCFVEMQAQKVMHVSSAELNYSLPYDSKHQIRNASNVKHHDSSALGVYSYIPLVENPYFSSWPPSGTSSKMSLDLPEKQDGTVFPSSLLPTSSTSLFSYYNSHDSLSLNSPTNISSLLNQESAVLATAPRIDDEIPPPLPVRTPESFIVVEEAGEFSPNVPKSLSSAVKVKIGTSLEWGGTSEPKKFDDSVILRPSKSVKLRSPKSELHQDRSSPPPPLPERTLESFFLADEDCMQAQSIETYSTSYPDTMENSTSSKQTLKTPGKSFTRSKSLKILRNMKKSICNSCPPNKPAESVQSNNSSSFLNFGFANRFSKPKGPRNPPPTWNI

[13] = target: T6, DNA repair and recombination protein RAD54-like (Homo sapiens, UniProt Q92698); assay: RAD54 Holliday junction migration blockers – biochemical, fluorescence, cherry-picked samples, dose series, confirmation (AID 651657); format: functional
T6 sequence (Q92698 whole entry): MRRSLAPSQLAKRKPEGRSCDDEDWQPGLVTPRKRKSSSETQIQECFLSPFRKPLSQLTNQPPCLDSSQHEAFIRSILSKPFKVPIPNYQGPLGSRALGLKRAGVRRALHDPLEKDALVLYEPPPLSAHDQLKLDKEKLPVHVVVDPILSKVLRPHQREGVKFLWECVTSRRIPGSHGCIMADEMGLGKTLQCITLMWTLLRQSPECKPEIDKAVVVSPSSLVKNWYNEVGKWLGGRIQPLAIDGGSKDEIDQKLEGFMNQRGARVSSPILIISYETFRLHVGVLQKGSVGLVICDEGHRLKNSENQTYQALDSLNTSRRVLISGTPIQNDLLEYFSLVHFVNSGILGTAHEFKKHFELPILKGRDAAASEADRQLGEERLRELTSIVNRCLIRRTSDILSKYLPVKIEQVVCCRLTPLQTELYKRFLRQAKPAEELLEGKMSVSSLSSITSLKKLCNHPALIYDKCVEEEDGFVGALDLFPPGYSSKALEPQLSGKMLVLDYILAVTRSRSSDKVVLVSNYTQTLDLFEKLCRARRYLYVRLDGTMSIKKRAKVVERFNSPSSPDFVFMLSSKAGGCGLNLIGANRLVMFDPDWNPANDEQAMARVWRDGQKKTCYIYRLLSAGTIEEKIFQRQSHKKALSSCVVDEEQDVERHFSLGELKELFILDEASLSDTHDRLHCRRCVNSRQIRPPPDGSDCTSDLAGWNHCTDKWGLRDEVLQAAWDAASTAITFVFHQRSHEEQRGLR

[14] = target: T1, Ubiquitin-conjugating enzyme E2 N; format: functional; remark: listed apart in the source
[15] = test system: Streptococcus sp. 'group A'; assay: Streptococcus pyogenes SK(-)GAS viability under kanamycin – luminescence, BacTiterGlo, confirmation, counter-screen for streptokinase expression inhibitor project, dose response (AID 1900); format: functional, organism-based
[16] = cytotoxicity toward MDA-MB-231 breast cancer cells – cell-based, CellTiter-Glo luminescence, cherry-pick, cytotoxicity control for RAD54 inhibitor project, dose response (AID 651692); format: functional
Streptococcus = assay: GAS UMAA2166 growth inhibition – luminescence, BacTiterGlo, counter-screen for streptokinase expression inhibitor project, dose response (AID 1915); format: functional, organism-based;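 also: potency for reduction of bacterial viability or growth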
Bcl-2-related protein A1 = Bcl-2-related protein A1 (Mus musculus, UniProt Q07440); format: functional;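 also: confirmatory dose–response counterscreen on Bfl-1, used to check hits from a UBC13 polyubiquitin inhibitor campaign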
Sequence of Bcl-2-related protein A1 (Q07440 whole entry, the tested form may be a part): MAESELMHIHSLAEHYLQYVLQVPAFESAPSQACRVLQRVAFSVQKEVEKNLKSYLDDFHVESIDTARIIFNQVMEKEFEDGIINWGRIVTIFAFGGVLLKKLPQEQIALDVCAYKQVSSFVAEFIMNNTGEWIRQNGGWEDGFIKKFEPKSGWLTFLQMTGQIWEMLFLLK

[17] = Fluorescence-based cell-based high throughput dose response assay for inhibitors of the interaction of nucleotide-binding oligomerization domain containing 2 (NOD2) and the receptor-interacting serine-threonine kinase 2 (RIPK2).; format: functional; conditions: Homo sapiens
[18] = target: Dual specificity protein phosphatase 3 (Homo sapiens, UniProt P51452); assay: VHR phosphatase inhibition, dose response, selectivity assay for STEP inhibitor project, biochemical (AID 602374); format: functional; conditions: read-out: IC50_Mean
Sequence of Dual specificity protein phosphatase 3 (P51452 whole entry): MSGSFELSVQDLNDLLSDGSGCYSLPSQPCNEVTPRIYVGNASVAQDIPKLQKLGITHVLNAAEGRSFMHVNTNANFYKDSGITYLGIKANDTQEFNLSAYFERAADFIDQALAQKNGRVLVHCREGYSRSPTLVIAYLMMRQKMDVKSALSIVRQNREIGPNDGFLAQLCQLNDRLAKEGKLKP

[19] = target: Tyrosine-protein phosphatase non-receptor type 5 (Homo sapiens, UniProt P54829); assay: PTPN5 enzyme inhibition – biochemical, fluorescence intensity, uHTS hits, confirmation (AID 602372); format: functional; conditions: read-out: IC50_Mean
Sequence of Tyrosine-protein phosphatase non-receptor type 5 (P54829 whole entry): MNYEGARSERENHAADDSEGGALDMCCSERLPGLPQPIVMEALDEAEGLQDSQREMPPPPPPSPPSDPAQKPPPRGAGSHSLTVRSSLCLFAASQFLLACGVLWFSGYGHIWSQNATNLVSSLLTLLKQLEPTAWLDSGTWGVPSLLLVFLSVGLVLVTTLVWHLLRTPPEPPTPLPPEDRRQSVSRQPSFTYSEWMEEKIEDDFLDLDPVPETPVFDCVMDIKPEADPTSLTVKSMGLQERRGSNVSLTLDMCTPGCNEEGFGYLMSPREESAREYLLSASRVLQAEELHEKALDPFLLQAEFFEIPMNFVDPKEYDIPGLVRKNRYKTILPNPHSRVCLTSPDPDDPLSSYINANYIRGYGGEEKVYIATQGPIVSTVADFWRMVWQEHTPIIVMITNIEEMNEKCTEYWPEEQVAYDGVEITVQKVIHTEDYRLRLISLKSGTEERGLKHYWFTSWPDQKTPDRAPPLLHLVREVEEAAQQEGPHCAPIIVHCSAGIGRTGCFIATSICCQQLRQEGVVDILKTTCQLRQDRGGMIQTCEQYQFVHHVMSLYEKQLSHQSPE

[20] = target: Tyrosine-protein phosphatase non-receptor type 11 (Homo sapiens, UniProt Q06124); assay: PTPN11 enzyme inhibitors – biochemical, selectivity assay for STEP inhibitor project, dose response (AID 602367); format: functional; conditions: read-out: IC50_Mean
Sequence of Tyrosine-protein phosphatase non-receptor type 11 (Q06124 whole entry): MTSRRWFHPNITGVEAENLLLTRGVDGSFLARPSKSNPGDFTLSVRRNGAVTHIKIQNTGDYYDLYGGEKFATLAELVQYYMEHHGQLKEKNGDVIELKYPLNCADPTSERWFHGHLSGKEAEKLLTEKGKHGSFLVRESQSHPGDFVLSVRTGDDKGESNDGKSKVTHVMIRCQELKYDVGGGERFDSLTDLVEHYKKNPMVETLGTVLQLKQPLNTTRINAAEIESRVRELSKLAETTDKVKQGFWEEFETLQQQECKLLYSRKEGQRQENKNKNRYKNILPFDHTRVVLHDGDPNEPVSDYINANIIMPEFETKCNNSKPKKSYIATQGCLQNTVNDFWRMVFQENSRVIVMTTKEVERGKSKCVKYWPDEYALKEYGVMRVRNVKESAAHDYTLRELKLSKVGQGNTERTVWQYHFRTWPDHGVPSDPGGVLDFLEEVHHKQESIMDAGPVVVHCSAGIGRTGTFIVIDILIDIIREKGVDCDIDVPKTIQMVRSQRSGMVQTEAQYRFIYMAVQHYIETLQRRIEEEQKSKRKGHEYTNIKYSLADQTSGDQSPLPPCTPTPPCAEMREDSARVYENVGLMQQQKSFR

Sequence of Potassium voltage-gated channel subfamily KQT member 2 (O88943 whole entry): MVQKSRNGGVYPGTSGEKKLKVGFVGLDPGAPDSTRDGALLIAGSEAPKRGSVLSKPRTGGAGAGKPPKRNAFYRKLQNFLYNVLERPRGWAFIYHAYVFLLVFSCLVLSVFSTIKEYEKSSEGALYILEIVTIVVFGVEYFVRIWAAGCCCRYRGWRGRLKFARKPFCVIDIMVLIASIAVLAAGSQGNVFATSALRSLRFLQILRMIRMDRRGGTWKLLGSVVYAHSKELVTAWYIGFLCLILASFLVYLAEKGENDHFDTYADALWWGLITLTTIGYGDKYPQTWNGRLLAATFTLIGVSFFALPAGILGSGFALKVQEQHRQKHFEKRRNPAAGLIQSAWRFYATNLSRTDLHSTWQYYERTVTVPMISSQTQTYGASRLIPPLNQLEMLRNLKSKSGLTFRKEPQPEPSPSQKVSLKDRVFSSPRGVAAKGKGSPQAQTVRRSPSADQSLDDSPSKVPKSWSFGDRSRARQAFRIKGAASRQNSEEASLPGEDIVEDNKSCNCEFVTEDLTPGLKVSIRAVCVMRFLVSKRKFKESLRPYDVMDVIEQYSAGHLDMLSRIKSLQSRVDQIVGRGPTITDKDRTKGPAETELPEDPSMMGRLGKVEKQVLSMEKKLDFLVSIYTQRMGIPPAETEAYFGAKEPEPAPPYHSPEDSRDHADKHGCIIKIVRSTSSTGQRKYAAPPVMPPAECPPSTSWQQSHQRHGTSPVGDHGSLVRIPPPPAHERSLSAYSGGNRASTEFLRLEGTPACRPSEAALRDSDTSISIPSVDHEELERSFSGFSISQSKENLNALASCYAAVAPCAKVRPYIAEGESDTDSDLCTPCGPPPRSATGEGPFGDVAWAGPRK

In the case of `COc1cc2cc(C(c3nnnn3Cc3ccc(F)cc3)N3CCCCCC3)c(O)nc2cc1OC` (stereo not given), the IC50 [1] is reported as 4.96 µM (active).

For `O=C(C[n+]1cc(-c2ccc(Cl)c(Cl)c2)n2c1CCC2)N1c2ccccc2Sc2ccccc21`, the IC50 [2] was > 20 µM (inactive), the EC50 [3] was 1.88 µM (active) and the EC50 [4] was 1.1 µM (active). The EC50 [5] was > 150 µM (inactive), the EC50 [6] was > 60 µM (not active) and the EC50 [7] was 14 nM (active). The EC50 [8] was 845 nM (active).

In the case of `O=C(CCN1C(=O)/C(=C/c2ccc3c(c2)OCO3)SC1=S)Nc1ccc(C(=O)O)cc1`, the IC50 [9] is reported as 8.74 µM (active), the IC50 [10] is reported as 16.2 µM (active) and the IC50 [11] is reported as 2.3 µM (active). The IC50 [12] was 12.9 µM (active).

With `CN(C)CCCn1c(SCC(=O)Nc2nc(-c3cccc(Br)c3)cs2)nc2ccccc2c1=O` the AC50 [13] was 95.9 µM (active), the IC50 [14] was 5.29 µM (active) and the IC50 [2] was 5.58 µM (active). For the same compound, the EC50 [15] was 3.17 µM (active), the AC50 [16] was 13.9 µM (active) and the EC50 [6] was 4.52 µM (active). The EC50 [8] was 1660 nM (active), the EC50 (Streptococcus) was 6.99 µM (active) and the IC50 (Bcl-2-related protein A1) was 13.1 µM (active).

For `Cn1cnc([N+](=O)[O-])c1S(=O)(=O)Oc1cccc2ccccc12`, the IC50 [17] was 3.4 µM (active).

With `Cc1nn(C)cc1/C=N/NC(=S)Nc1ccccc1` the IC50 [18] was 1.22 µM (active), the IC50 [19] was 26.5 µM (inactive) and the IC50 [20] was 3.15 µM (active).
